Measured values: patent US20220016196A1, “Aloe Based Compositions Comprising Polysaccharides and Polyphenols for Regulation of Homeostasis of Immunity” (Unigen, Inc., priority 2020, published 2022)

Tests used:
Type in all cases: in vivo, rat
IL-1β = assay: LPS-induced acute lung injury, serum IL-1β ELISA; conditions: rats
Protocol: (§1) The study was designed to evaluate the direct impact of an Aloe-based composition (UP360) made in the Example 9 in alleviating LPS-induced acute lung injury administered orally at 500 mg/kg and 250 mg/kg. […] In this study, we treated rats with the test materials orally for 7 days before model induction with LPS. On the 8th day, an hour after oral treatment, LPS was instilled intratracheally (i.t.) at 10 mg/kg dissolved in 0.1 mL/100 g PBS to each rat. The normal control rats received the same volume i.t. PBS only.
(§2) We sacrificed surviving animals 24 hours after intratracheal LPS administration to the rats. At necropsy, collected bronchoalveolar lavage (BAL) by intratracheal injection of 1.5 mL PBS into the right lobe followed by gentle aspiration at least 3 times. Pooled recovered fluid, centrifuged at 1500 rpm for 10 min at 4 ° C., and was used to measure cytokines (e.g. IL-6) and pulmonary protein levels. […]
(§3) The presence of IL-1β in undiluted rat serum from Example 23 was measured using the Rat IL-1β Quantikine ELISA kit from R&D Systems (product#: RLBOO) as follows: undiluted serum was added to a microplate coated with IL-1β antibody. […] After developing for 30 minutes at room temperature, a stop solution was added, and the absorbance was read at 450 nm. The concentration of IL-1β was calculated based on the absorbance readings of an IL-1β standard curve.

MIP-2/CINC-3 = assay: LPS-induced acute lung injury, lung homogenate MIP-2/CINC-3 ELISA; conditions: rats
Protocol: as §1
We sacrificed surviving animals 24 hours after intratracheal LPS administration to the rats. At necropsy, collected bronchoalveolar lavage (BAL) by intratracheal injection of 1.5 mL PBS into the right lobe followed by gentle aspiration at least 3 times. […]
50 μL of each rat lung homogenate sample from Example 23 (10 per group for Vehicle, Sodium Butyrate (SB), UP360 Low dose, UP360 High dose, 7 per group for Control) and 50 μL of assay diluent buffer were added to the wells of a 96-well microplate coated with monoclonal CINC-3 antibody and allowed to bind for 2 hours. […] The absorbance of each well was read at 450 nm (with a 580 nm correction) and compared to a standard curve of CINC-3 in order to approximate the amount of CINC-3 in each rat lung homogenate sample.

[1] = LPS-induced acute lung injury, BAL total protein (BCA); conditions: rats
Protocol: as §1, §2
The amount of total proteins in the broncho-alveolar lavage (BAL) samples from Example 23 was measured using the Pierce BCA Protein Assay kit from ThermoFisher Scientific (product #: 23225) as follows: BAL was diluted 1:5, mixed with bicinchoninic acid (BCA) reagent in a microplate, and incubated at 37° C. for 30 minutes. Absorbance was read at 580 nm, and protein concentration in BAL was calculated based on the absorbance readings of a bovine serum albumin standard curve.

C Reactive Protein (CRP) = assay: LPS-induced acute lung injury, BAL C Reactive Protein ELISA; conditions: rats
Protocol: as §1, §2
The presence of C Reactive Protein (CRP) in rat BAL diluted 1:1,000 was measured using the C Reactive Protein (PTX1) Rat ELISA kit from Abcam (product #: ab108827) as follows: 1:1,000 diluted BAL was added to a microplate coated with CRP antibody. […] After developing for 10 minutes at room temperature, a stop solution was added, and the absorbance was read at 450 nm. The concentration of CRP was calculated based on the absorbance readings of a CRP standard curve.

IL-10 = assay: LPS-induced acute lung injury, BAL IL-10 ELISA; conditions: rats, LPS 10 mg/kg i.t., 24 hours post, oral, 500 mg/kg
Protocol: as §1, §2
as §3, with “IL-10” for “IL-1β”, “broncho-alveolar lavage (BAL) samples” for “rat serum”, “(product #: R1000)” for “(product#: RLBOO)”, “BAL” for “serum”

[2] = test system: LPS-induced acute lung injury rats; assay: LPS-induced acute lung injury, lung histopathology (H&E)
Protocol: as §1
We sacrificed surviving animals 24 hours after intratracheal LPS administration to the rats. At necropsy, collected bronchoalveolar lavage (BAL) by intratracheal injection of 1.5 mL PBS into the right lobe followed by gentle aspiration at least 3 times. Pooled recovered fluid, centrifuged at 1500 rpm for 10 min at 4 ° C., and was used to measure cytokines (e.g. IL-6) and pulmonary protein levels. This same right lobe was collected for tissue homogenization from each rat for MIP-2/CINC-3 protein analysis. The left lobe was fixed with formalin and submitted for histopathology evaluation to Nationwide Histology for analysis by a certified pathologist. Serum collected at necropsy was used to measure cytokines such as TNF-α and IL-1β.
The left lobe of the lung was used for the histopathology analysis.

[3] = LPS 10 mg/kg i.t., 24 hours post, oral, 500 mg/kg

Which “serum IL-1β level, Mean ± SD” value (IL-1β; [3]) does the source give for CCCC(=O)[O-].[Na+] [Sodium Butyrate] here?
Its value is 22.58 ± 9.46 pg/mL.

And the “reduction in serum IL-1β vs vehicle” value (IL-1β; LPS i.t., 500 mg/kg oral)?
The value was 65.3%.

What about the “lung homogenate MIP-2/CINC-3 level, Mean ± SD” value (MIP-2/CINC-3; [3]) of the same compound?
Its value is 464.00 ± 220.32 pg/mL.

What about the “reduction in CINC-3 level vs vehicle” value (MIP-2/CINC-3; LPS i.t., 500 mg/kg oral) of the same compound?
The value was 17.7%.

What about the “BAL protein level, Mean ± SD” value [1, 3] of the same compound?
Its value is 2940.14 ± 2092.32 µg/mL.

And the “reduction in BAL total proteins vs vehicle” value ([1]; LPS i.t., 500 mg/kg oral)?
Its value is 30.2%.

What about the “BAL CRP level, Mean ± SD” value (C Reactive Protein (CRP); [3]) of the same compound?
Its value is 20093.5 ± 8826.1 pg/mL.

And the “reduction of BAL CRP vs vehicle” value (C Reactive Protein (CRP); LPS i.t., 500 mg/kg oral)?
Its value is “minimal changes”.

What about the “BAL IL-10 level, Mean ± SD” value (IL-10) of the same compound?
The value was 154.84 ± 159.63 pg/mL.

What about the “Infiltration of PMC” value ([2]; score 0-4, 500 mg/kg) of the same compound?
The value was 2.75 ± 0.78.

What about the “Pulmonary Edema” value ([2]; score 0-4, 500 mg/kg) of the same compound?
The value was 2.35 ± 0.95.

And the “Overall lung tissue Severity” value ([2]; score 0-4, H&E left lobe, 500 mg/kg)?
Its value is 3.05 ± 0.42.
